Reference: ChEMBL document CHEMBL5212743, “Selectivity Literature for EUbOPEN Chemogenomics Library wave 3” (2023)
Each block holds one compound with its values, some of them ahead of it.

Experiments:
[1] = target: Dual specificity tyrosine-phosphorylation-regulated kinase 1B (Homo sapiens, UniProt Q9Y463); assay: Selectivity interaction (KinomeScan (DiscoverX)) EUB0000545a DYRK1B; conditions: at 1 µM
[2] = target: T1, Alpha-1D adrenergic receptor (Homo sapiens, UniProt P25100); assay: Selectivity interaction (GPCR panel (PDSP screen)) EUB0000545a ADRA1D
T1 sequence (P25100 whole entry): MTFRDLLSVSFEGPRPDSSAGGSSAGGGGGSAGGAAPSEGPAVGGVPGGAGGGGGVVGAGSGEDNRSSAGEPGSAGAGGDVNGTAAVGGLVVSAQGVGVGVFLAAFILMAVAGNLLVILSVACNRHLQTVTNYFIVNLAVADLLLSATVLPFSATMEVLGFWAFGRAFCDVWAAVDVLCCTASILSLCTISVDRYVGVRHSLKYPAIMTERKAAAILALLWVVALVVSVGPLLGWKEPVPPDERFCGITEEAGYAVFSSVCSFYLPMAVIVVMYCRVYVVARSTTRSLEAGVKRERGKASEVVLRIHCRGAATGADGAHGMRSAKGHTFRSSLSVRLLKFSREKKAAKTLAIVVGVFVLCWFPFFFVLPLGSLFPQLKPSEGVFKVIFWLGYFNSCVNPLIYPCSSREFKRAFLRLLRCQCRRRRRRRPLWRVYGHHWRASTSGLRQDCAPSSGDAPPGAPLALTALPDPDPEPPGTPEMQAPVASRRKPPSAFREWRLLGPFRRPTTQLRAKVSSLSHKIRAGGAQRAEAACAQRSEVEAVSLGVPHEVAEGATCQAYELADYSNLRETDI

Focal adhesion kinase 1 = Focal adhesion kinase 1 (Homo sapiens, UniProt Q05397); assay: Selectivity interaction (KinomeScan (DiscoverX)) EUB0000545a PTK2; conditions: at 1 µM
Sequence of Focal adhesion kinase 1 (Q05397 2-1052 limits assumed): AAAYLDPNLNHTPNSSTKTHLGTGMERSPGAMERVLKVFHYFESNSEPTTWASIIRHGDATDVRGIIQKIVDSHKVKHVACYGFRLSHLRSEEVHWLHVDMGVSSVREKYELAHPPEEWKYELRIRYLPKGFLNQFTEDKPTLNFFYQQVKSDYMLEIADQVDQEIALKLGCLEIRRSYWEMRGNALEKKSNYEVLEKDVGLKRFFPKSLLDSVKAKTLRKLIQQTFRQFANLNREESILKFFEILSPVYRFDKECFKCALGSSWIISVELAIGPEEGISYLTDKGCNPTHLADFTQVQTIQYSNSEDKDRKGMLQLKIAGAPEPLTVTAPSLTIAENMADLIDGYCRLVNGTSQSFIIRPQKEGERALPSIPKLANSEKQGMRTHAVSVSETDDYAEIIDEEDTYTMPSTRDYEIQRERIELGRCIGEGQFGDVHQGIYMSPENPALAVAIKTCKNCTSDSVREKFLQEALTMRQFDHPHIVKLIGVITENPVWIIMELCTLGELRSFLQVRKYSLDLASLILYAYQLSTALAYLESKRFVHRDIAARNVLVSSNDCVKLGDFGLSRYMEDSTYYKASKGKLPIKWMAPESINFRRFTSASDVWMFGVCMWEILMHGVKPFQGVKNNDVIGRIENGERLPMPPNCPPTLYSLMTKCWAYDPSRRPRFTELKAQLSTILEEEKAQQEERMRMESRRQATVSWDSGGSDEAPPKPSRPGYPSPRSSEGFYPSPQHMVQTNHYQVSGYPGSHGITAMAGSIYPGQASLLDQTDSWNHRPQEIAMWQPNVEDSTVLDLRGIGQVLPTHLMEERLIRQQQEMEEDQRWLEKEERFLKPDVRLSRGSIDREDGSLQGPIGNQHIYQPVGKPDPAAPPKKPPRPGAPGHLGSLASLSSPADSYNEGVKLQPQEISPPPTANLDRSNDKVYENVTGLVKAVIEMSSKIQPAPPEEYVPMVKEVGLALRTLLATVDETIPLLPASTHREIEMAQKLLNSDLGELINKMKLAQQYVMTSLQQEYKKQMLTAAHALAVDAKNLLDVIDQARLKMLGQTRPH

[3] = target: Rho-associated protein kinase 1 (Homo sapiens) (UniProt Q13464); assay: Selectivity interaction (KinomeScan (DiscoverX)) EUB0000545a ROCK1; conditions: at 1 µM
Sequence of Rho-associated protein kinase 1 (Homo sapiens) (Q13464 2-1354 limits assumed): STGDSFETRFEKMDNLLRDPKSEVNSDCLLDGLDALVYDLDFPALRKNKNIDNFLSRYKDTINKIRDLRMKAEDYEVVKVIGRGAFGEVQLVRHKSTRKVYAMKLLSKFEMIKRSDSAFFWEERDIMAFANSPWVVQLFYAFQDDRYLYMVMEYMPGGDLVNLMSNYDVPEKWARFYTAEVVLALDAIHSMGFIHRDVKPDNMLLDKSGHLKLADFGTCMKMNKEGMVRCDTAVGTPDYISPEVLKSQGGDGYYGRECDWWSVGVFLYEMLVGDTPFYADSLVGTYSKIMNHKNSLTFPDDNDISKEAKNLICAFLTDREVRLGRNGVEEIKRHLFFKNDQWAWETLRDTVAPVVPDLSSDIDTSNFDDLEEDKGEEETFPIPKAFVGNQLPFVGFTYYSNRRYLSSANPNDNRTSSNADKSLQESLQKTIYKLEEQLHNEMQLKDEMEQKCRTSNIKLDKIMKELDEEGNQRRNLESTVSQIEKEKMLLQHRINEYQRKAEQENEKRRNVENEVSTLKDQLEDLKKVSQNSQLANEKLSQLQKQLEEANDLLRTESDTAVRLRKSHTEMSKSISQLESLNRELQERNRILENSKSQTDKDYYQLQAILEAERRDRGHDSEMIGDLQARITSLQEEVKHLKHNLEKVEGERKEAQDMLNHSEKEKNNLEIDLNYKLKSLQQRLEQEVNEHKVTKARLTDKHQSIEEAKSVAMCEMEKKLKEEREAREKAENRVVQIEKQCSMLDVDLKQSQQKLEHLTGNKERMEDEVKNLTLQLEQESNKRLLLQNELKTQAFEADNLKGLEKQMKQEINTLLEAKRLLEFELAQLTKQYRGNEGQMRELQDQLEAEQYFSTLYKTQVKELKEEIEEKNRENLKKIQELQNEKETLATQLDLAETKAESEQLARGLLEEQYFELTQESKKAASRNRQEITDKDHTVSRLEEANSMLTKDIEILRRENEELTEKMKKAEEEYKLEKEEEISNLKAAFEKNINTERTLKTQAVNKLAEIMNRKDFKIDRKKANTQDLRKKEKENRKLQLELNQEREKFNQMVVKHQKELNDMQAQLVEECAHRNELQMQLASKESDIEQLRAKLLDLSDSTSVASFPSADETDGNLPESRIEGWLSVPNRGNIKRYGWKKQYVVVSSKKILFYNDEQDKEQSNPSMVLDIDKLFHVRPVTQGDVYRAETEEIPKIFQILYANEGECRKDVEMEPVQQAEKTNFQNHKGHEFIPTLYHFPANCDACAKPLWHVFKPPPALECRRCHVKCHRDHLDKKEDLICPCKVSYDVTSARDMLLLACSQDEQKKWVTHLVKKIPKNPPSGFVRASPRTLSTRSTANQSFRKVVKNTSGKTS

[4] = target: Cyclin-dependent kinase 3 (Homo sapiens) (UniProt Q00526); assay: Selectivity interaction (KinomeScan (DiscoverX)) EUB0000335a CDK3; conditions: at 1 µM
Sequence of Cyclin-dependent kinase 3 (Homo sapiens) (Q00526 whole entry, looked up): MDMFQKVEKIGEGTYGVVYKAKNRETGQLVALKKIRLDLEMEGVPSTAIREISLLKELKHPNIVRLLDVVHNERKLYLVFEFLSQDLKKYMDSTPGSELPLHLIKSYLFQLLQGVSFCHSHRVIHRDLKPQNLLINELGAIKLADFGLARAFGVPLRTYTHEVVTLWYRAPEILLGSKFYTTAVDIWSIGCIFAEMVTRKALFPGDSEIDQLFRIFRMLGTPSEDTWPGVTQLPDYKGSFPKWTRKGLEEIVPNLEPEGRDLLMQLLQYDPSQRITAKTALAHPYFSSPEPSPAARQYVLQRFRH

[5] = target: Receptor-interacting serine/threonine-protein kinase 1 (Homo sapiens) (UniProt Q13546); assay: Selectivity interaction (KinomeScan (DiscoverX)) EUB0000335a RIPK1; conditions: at 1 µM
Sequence of Receptor-interacting serine/threonine-protein kinase 1 (Homo sapiens) (Q13546 whole entry): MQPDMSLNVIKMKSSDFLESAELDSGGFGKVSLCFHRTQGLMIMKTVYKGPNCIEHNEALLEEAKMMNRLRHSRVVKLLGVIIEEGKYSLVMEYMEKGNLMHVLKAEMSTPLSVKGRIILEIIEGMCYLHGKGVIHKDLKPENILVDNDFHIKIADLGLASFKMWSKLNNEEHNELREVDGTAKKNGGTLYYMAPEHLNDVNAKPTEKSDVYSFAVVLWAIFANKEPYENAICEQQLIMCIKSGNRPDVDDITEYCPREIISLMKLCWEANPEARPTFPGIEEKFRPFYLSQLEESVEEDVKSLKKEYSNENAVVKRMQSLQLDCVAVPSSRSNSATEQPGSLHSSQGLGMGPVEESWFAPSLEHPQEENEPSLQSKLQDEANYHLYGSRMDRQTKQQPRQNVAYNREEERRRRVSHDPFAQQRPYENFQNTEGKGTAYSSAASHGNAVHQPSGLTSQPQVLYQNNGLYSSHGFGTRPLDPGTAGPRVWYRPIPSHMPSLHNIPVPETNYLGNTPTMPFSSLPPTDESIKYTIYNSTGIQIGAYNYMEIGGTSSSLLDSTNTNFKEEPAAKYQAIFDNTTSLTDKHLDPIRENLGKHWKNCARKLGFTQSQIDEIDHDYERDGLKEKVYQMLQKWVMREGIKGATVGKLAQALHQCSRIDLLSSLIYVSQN

[6] = target: Serine/threonine-protein kinase WNK2 (Homo sapiens) (UniProt Q9Y3S1); assay: Selectivity interaction (KinomeScan (DiscoverX)) EUB0000335a WNK2; conditions: at 1 µM
[7] = target: T2, Mitogen-activated protein kinase kinase kinase 13 (Homo sapiens) (UniProt O43283); assay: Selectivity interaction (KinomeScan (DiscoverX)) EUB0000335a MAP3K13; conditions: at 1 µM
T2 sequence (whole entry): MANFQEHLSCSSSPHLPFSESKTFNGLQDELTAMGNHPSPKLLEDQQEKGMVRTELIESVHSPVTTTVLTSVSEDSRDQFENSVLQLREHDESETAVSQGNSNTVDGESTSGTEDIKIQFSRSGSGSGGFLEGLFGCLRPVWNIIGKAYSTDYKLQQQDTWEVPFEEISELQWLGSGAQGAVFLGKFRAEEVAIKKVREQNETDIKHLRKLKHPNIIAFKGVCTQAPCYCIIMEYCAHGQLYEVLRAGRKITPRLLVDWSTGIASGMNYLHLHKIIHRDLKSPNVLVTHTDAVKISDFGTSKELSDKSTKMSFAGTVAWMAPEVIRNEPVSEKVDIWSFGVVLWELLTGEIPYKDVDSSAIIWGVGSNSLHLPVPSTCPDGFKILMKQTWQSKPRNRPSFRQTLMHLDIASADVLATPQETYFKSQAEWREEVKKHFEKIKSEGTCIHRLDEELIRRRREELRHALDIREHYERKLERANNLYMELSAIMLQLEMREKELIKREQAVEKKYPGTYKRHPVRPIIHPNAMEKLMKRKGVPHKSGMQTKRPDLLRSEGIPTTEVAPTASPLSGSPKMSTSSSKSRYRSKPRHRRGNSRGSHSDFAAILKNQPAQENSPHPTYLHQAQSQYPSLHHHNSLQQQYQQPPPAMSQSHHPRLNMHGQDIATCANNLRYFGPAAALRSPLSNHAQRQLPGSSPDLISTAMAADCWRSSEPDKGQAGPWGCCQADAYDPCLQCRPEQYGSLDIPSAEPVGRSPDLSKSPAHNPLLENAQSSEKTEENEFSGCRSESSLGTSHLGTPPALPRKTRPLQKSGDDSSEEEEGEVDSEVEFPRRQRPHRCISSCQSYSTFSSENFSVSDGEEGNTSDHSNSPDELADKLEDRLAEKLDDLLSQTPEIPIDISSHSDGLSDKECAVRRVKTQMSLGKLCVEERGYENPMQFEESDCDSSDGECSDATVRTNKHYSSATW

[8] = target: Mitotic checkpoint serine/threonine-protein kinase BUB1 (Homo sapiens) (UniProt O43683); assay: Selectivity interaction (KinomeScan (DiscoverX)) EUB0000335a BUB1; conditions: at 1 µM
D(1A) dopamine receptor = D(1A) dopamine receptor (Homo sapiens, UniProt P21728); assay: Selectivity interaction (GPCR panel (PDSP screen)) EUB0000335a DRD1
Sequence of D(1A) dopamine receptor (P21728 whole entry): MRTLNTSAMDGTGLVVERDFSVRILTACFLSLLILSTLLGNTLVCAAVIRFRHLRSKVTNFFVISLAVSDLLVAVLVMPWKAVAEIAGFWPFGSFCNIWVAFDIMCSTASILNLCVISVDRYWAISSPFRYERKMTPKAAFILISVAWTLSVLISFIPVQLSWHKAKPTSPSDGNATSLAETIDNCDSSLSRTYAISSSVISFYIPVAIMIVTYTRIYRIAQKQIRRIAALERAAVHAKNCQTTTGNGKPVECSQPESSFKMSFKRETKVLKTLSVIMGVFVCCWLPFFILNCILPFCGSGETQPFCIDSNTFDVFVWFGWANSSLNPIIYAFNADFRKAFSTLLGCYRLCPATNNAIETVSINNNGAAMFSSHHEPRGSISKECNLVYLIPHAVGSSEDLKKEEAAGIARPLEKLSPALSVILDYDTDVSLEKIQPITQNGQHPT

[9] = target: T3, Gamma-aminobutyric acid receptor subunit alpha-1 (Homo sapiens, UniProt P14867); assay: (§1) Selectivity interaction (GPCR panel (PDSP screen)) EUB0000707a GABRA1
T3 sequence (P14867 whole entry): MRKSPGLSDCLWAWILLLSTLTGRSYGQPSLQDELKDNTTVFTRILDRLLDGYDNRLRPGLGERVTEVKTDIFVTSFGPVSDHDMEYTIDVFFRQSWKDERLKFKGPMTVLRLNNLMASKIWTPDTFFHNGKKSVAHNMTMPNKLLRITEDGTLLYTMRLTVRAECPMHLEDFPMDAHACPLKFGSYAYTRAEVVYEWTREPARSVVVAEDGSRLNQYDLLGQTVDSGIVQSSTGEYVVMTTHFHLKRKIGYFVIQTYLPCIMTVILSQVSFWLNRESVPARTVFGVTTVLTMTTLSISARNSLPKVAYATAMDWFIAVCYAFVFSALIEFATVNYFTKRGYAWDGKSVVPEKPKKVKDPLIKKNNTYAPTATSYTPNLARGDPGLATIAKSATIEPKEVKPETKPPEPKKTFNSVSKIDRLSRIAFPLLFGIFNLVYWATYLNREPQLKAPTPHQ

[10] = target: Phosphatidylinositol 4-kinase beta (Homo sapiens) (UniProt Q9UBF8); assay: Selectivity interaction (KinomeScan (DiscoverX)) EUB0000707a PI4KB; conditions: at 1 µM
Sequence of Phosphatidylinositol 4-kinase beta (Homo sapiens) (Q9UBF8 2-816 limits assumed): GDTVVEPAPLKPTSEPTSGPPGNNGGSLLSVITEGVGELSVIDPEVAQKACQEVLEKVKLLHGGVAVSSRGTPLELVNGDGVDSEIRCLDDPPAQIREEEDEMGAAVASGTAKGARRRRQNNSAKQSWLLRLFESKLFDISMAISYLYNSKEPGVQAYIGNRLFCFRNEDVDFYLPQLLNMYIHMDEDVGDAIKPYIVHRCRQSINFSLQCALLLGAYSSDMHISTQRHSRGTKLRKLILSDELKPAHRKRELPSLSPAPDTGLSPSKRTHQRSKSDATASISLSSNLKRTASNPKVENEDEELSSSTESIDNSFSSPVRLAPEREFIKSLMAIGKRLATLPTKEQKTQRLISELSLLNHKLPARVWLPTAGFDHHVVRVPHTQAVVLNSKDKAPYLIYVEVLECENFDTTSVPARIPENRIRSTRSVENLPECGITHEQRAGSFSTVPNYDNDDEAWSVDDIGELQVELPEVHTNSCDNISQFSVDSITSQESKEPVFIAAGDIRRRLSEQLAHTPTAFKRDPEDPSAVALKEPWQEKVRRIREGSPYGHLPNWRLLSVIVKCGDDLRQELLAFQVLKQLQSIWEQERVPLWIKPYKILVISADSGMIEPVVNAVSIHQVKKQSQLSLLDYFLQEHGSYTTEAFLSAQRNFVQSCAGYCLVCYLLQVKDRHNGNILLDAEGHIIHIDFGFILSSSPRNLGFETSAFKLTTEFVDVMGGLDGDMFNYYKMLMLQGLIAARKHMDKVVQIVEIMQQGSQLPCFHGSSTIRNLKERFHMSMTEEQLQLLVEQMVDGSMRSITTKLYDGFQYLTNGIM

[11] = target: T3, Gamma-aminobutyric acid receptor subunit alpha-1; assay: as §1; remark: listed apart in the source
[12] = target: Interleukin-1 receptor-associated kinase 4 (Homo sapiens) (UniProt Q9NWZ3); assay: Selectivity interaction (KinomeScan (DiscoverX)) EUB0000707a IRAK4; conditions: at 1 µM
[13] = tested on: Hepatocyte growth factor receptor (Homo sapiens), P08581 [M1250T]; assay: (§2) Selectivity interaction (KinomeScan (DiscoverX)) EUB0000707a MET; conditions: at 1 µM
[14] = target: Hepatocyte growth factor receptor (Homo sapiens) (UniProt P08581); assay: as §2; conditions: at 1 µM

% of control [1]: 37%
Ki [2]: > 10000 nM
% of control (Focal adhesion kinase 1): 17%
% of control [3]: 0.5%
SMILES: CC(=O)N1CCC(c2ccc(C(=O)NC3=NCCN3)cc2C(F)(F)F)CC1 [BI 0054]

% of control [4]: 41%
% of control [5]: 30%
% of control [6]: 0%
% of control [7]: 0%
% of control [8]: 1.9%
Ki (D(1A) dopamine receptor): > 10000 nM
SMILES: O=C(NCc1ncc(C(F)(F)F)cc1Cl)c1ccc2c(c1)C1(CCS(=O)(=O)CC1)[C@@H](C1CC1)N2S(=O)(=O)c1ccc(F)cc1 [BAY-786]

Ki [9]: 21 nM
% of control [10]: 30%
Ki [11]: 21 nM
% of control [12]: 7.5%
% of control [13]: 27%
% of control [14]: 24%
SMILES: CC1=C(C#N)C(c2ccc3c(c2)c(NC(=O)c2ccccc2C)nn3C)C(C#N)=C(C)N1 [BAY-974]
